The text below walks through data of PubChem BioAssay AID2060625 (Molecular Pharmacology Branch, DTP, NCI, 2025).

This test has as its system 186277-243-T-J2-PDC spheroids with HUVEC/MSC, viability. Kind of test: Anticancer human tumor 186277-243-T-J2-PDC patient-derived colon adenocarcinoma cell line growth inhibition [CLK]. The conditions noted are these: for viability, T/C: stronger effect = lower value. Summed up: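 Multi-cell-type spheroids combined patient-derived tumor cells with HUVEC endothelial cells and human mesenchymal stem cells. Paired agents were dosed in half-log steps down from about clinical Cmax, or from 10 microM where Cmax was unknown.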

The mark [1] stands for this setting: curve of first compound, second compound 0.0316 µM.
Setting [2] is: curve of first compound, second compound 0.1 µM.
Where [3] appears, read: curve of first compound, second compound 0.316 µM.
Setting [4] is: curve of first compound, second compound 1 µM.
Where [5] appears, read: curve of first compound, second compound 3.16 µM.
The mark [6] stands for this setting: curve of first compound, second compound 10 µM.
Where [7] appears, read: second compound 0.0316 µM, first compound 0.0316 µM.
Setting [8] is: second compound 0.0316 µM, first compound 0.1 µM.
The mark [9] stands for this setting: second compound 0.0316 µM, first compound 0.316 µM.
[10] abbreviates: second compound 0.0316 µM, first compound 1 µM.
Where [11] appears, read: second compound 0.0316 µM, first compound 3.16 µM.
Where [12] appears, read: second compound 0.0316 µM, first compound 10 µM.
The mark [13] stands for this setting: second compound 0.1 µM, first compound 0.0316 µM.
The mark [14] stands for this setting: second compound 0.1 µM, first compound 0.1 µM.
[15] abbreviates: second compound 0.1 µM, first compound 0.316 µM.
[16] abbreviates: second compound 0.1 µM, first compound 1 µM.
Where [17] appears, read: second compound 0.1 µM, first compound 3.16 µM.
[18] abbreviates: second compound 0.1 µM, first compound 10 µM.
[19] abbreviates: second compound 0.316 µM, first compound 0.0316 µM.
[20] abbreviates: second compound 0.316 µM, first compound 0.1 µM.
Where [21] appears, read: second compound 0.316 µM, first compound 0.316 µM.
The mark [22] stands for this setting: second compound 0.316 µM, first compound 1 µM.
[23] abbreviates: second compound 0.316 µM, first compound 3.16 µM.
Where [24] appears, read: second compound 0.316 µM, first compound 10 µM.
Where [25] appears, read: second compound 1 µM, first compound 0.0316 µM.
Where [26] appears, read: second compound 1 µM, first compound 0.1 µM.
Setting [27] is: second compound 1 µM, first compound 0.316 µM.
[28] abbreviates: second compound 1 µM, first compound 1 µM.
[29] abbreviates: second compound 1 µM, first compound 3.16 µM.
The mark [30] stands for this setting: second compound 1 µM, first compound 10 µM.
Setting [31] is: second compound 3.16 µM, first compound 0.0316 µM.
[32] abbreviates: second compound 3.16 µM, first compound 0.1 µM.
Setting [33] is: second compound 3.16 µM, first compound 0.316 µM.
Setting [34] is: second compound 3.16 µM, first compound 1 µM.
[35] abbreviates: second compound 3.16 µM, first compound 3.16 µM.
Setting [36] is: second compound 3.16 µM, first compound 10 µM.
Where [37] appears, read: second compound 10 µM, first compound 0.0316 µM.
Setting [38] is: second compound 10 µM, first compound 0.1 µM.
[39] abbreviates: second compound 10 µM, first compound 0.316 µM.
The mark [40] stands for this setting: second compound 10 µM, first compound 1 µM.
[41] abbreviates: second compound 10 µM, first compound 3.16 µM.
Where [42] appears, read: second compound 10 µM, first compound 10 µM.

Each structure is given as a SMILES string. Several values for one entry are separate records, joined by “and”; a condition that tells them apart may be missing. Identical values can stand only once. Some results are limits rather than exact numbers.
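Note: compound exposure lasted seven days before readout.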
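Throughout, for viability, T/C: 100% = DMSO vehicle control wells.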

`Nc1ccccc1NC(=O)c1ccc(CNC(=O)OCc2cccnc2)cc1` + CNC(=O)c1ccc(Nc2nc(OC3CCCC3)c3c(-c4ccc5nc(C)oc5c4)c[nH]c3n2)c(OC)c1: the IC50 was 3.05 µM under setting [1]; 2.56 µM under setting [2]; 1.51 µM under setting [3]; 0.0316 µM under setting [4]; less than 0.0316 µM under setting [5]; less than 0.0316 µM under setting [6]. The viability, T/C is, setting by setting: under setting [7], 106%; under setting [8], 107%; under setting [9], 93.3%; under setting [10], 92.9%; under setting [11], 48%; under setting [12], 11%. The viability, T/C runs as follows: under setting [13], 91.9%; under setting [14], 96.8%; under setting [15], 88%; under setting [16], 104%; under setting [17], 39.8%; under setting [18], 4.98%. The viability, T/C is, setting by setting: under setting [19], 53.6%; under setting [20], 60.2%; under setting [21], 64.2%; under setting [22], 82.2%; under setting [23], 23%; under setting [24], 3.58%. Moreover, the viability, T/C reads like this: under setting [25], 37.9%; under setting [26], 38.8%; under setting [27], 47.7%; under setting [28], 54.1%; under setting [29], 16.4%; under setting [30], 1.52%. Further, the viability, T/C is, setting by setting: under setting [31], 33.7%; under setting [32], 38.2%; under setting [33], 39%; under setting [34], 41.2%; under setting [35], 9.98%; under setting [36], 1.71%. Further, the viability, T/C reads like this: under setting [37], 38.3%; under setting [38], 32.1%; under setting [39], 35.7%; under setting [40], 35.3%; under setting [41], 10.1%; under setting [42], 0.98%.

Take `Nc1ccccc1NC(=O)c1ccc(CNC(=O)OCc2cccnc2)cc1`: the viability, T/C (compound 0.0316 µM) is 100% and 92.4%; the viability, T/C (compound 0.1 µM) is 88.7% and 92%; the viability, T/C (compound 0.316 µM) was 85.5% and 84.9%; the viability, T/C (compound 1 µM) is 110% and 100%; the viability, T/C (compound 3.16 µM) was 76.6% and 48%; the viability, T/C (compound 10 µM) was 23.2% and 13.7%. Moreover, the half-maximal inhibitory concentration (IC50) (curve of compound) is 5.6 µM and 3.01 µM.

On to `O=C(c1cc(Cc2n[nH]c(=O)c3ccccc23)ccc1F)N1CCN(C(=O)C2CC2)CC1` + CN1CCN(c2cc(C(=O)Nc3cc4cc(-c5cnn(C)c5)ccc4cn3)ccn2)CC1, for which the IC50 is more than 10 µM under setting [1]; more than 10 µM under setting [2]; less than 0.0316 µM under setting [3]; less than 0.0316 µM under setting [4]; less than 0.0316 µM under setting [5]; less than 0.0316 µM under setting [6]. Besides, the viability, T/C under setting [7] is 95.8%; the viability, T/C under setting [8] is 97.4%; the viability, T/C under setting [9] was 97.2%; the viability, T/C under setting [10] is 103%; the viability, T/C under setting [11] was 102%; the viability, T/C under setting [12] was 93.6%. The viability, T/C is 82.5% under setting [13]; 82.8% under setting [14]; 82.7% under setting [15]; 73.9% under setting [16]; 73.2% under setting [17]; 69% under setting [18]. Moreover, the viability, T/C under setting [19] was 24.6%; the viability, T/C under setting [20] was 25.8%; the viability, T/C under setting [21] is 23.1%; the viability, T/C under setting [22] was 24.8%; the viability, T/C under setting [23] was 24.2%; the viability, T/C under setting [24] was 21.7%. Further, the viability, T/C was 0.33% under setting [25]; 0.74% under setting [26]; 2.04% under setting [27]; 0.29% under setting [28]; 1.71% under setting [29]; 0.32% under setting [30]. For the same compound, the viability, T/C is, setting by setting: under setting [31], 2.76%; under setting [32], 1.64%; under setting [33], 1.3%; under setting [34], 1.29%; under setting [35], 1.16%; under setting [36], 1.05%. For the same compound, the viability, T/C reads like this: under setting [37], 1.59%; under setting [38], 0.89%; under setting [39], 0.83%; under setting [40], 0.77%; under setting [41], 1.1%; under setting [42], 0.59%.

Consider `CC(CO)NC(=O)c1cc(-c2ccc(Cl)cc2)nn(-c2cnn(C)c2)c1=O` (stereo not given), for which the viability, T/C was 84.6% and 120% (compound 0.0316 µM); 80.5% and 91.3% (compound 0.1 µM); 95.9% and 96.8% (compound 0.316 µM); 81% and 88.2% (compound 1 µM); 87.7% and 101% (compound 3.16 µM); 115% and 117% (compound 10 µM). For the same compound, the half-inhibitory concentration (IC50) (curve of compound) is more than 10 µM.

Consider `COC1C=CCC(C)C(C)S(=O)(=O)NC(=O)c2ccc3c(c2)N(CC2CCC21)CC1(CCCc2cc(Cl)ccc21)CO3` (stereo not given), for which the viability, T/C by setting is: (compound 0.0316 µM) 83.5% and 117%; (compound 0.1 µM) 90% and 103%; (compound 0.316 µM) 88.2% and 101%; (compound 1 µM) 85.8% and 84.1%; (compound 3.16 µM) 82.9% and 69.2%; (compound 10 µM) 3.82% and 5.57%. Moreover, under “curve of compound”, the IC50 is 5.11 µM and 4.15 µM.

For orientation: IC50 means the concentration that inhibits the measured activity by half. What is called viability, T/C is the ratio of treated to control.
